Measurements taken from ChEMBL document CHEMBL2062394, “Azide-alkyne cycloaddition en route to novel 1H-1,2,3-triazole tethered isatin conjugates with in vitro cytotoxic evaluation” (Eur J Med Chem, 2012).

Columns and labels:
Caco-2 [1] = experiment: Growth inhibition of human Caco2 cells at 50 uM after 48 hrs by SRB assay; assay type: functional; settings: Caco-2, 48 h, read-out: GI
Caco-2 [2] = experiment: Growth inhibition of human Caco2 cells at 100 uM after 48 hrs by SRB assay; assay type: functional; settings: Caco-2, 48 h, read-out: GI
PC-3 [3] = experiment: Growth inhibition of human PC3 cells after 48 hrs by SRB assay; assay type: functional, cell-based; settings: for IC50: PC-3, 48 h
A549 [4] = experiment: Growth inhibition of human A549 cells after 48 hrs by SRB assay; assay type: functional, cell-based; settings: for IC50: A549, 48 h
PC-3 [5] = experiment: Growth inhibition of human PC3 cells at 10 uM after 48 hrs by SRB assay; assay type: functional; settings: PC-3, 48 h, read-out: GI
A549 [6] = experiment: Growth inhibition of human A549 cells at 50 uM after 48 hrs by SRB assay; assay type: functional; settings: A549, 48 h, read-out: GI
A549 [7] = experiment: Growth inhibition of human A549 cells at 100 uM after 48 hrs by SRB assay; assay type: functional; settings: A549, 48 h, read-out: GI
THP-1 [8] = experiment: Growth inhibition of human THP1 cells after 48 hrs by SRB assay; assay type: functional, cell-based; settings: for IC50: THP-1, 48 h
Caco-2 [9] = experiment: Growth inhibition of human Caco2 cells after 48 hrs by SRB assay; assay type: functional, cell-based; settings: for IC50: Caco-2, 48 h
THP-1 [10] = experiment: Growth inhibition of human THP1 cells at 100 uM after 48 hrs by SRB assay; assay type: functional; settings: THP-1, 48 h, read-out: GI
THP-1 [11] = experiment: Growth inhibition of human THP1 cells at 50 uM after 48 hrs by SRB assay; assay type: functional; settings: THP-1, 48 h, read-out: GI
Caco-2 [12] = experiment: Growth inhibition of human Caco2 cells at 10 uM after 48 hrs by SRB assay; assay type: functional; settings: Caco-2, 48 h, read-out: GI
A549 [13] = experiment: Growth inhibition of human A549 cells at 10 uM after 48 hrs by SRB assay; assay type: functional; settings: A549, 48 h, read-out: GI
PC-3 [14] = experiment: Growth inhibition of human PC3 cells at 100 uM after 48 hrs by SRB assay; assay type: functional; settings: PC-3, 48 h, read-out: GI
THP-1 [15] = experiment: Growth inhibition of human THP1 cells at 10 uM after 48 hrs by SRB assay; assay type: functional; settings: THP-1, 48 h, read-out: GI
PC-3 [16] = experiment: Growth inhibition of human PC3 cells at 50 uM after 48 hrs by SRB assay; assay type: functional; settings: PC-3, 48 h, read-out: GI

Structure (SMILES) | inhibition of growth at 50 µM (Caco-2 [1]) [%] | inhibition of growth at 100 µM (Caco-2 [2]) [%] | growth inhibition (GI) (PC-3 [3]) | IC50 (PC-3 [3]) [µM] | growth inhibition (GI) (A549 [4]) | IC50 (A549 [4]) [µM] | inhibition of growth at 10 µM (PC-3 [5]) [%] | inhibition of growth at 50 µM (A549 [6]) [%] | inhibition of growth at 100 µM (A549 [7]) [%] | growth inhibition (GI) (THP-1 [8]) | IC50 (THP-1 [8]) [µM] | growth inhibition (GI) (Caco-2 [9]) | IC50 (Caco-2 [9]) [µM] | inhibition of growth at 100 µM (THP-1 [10]) [%] | inhibition of growth at 50 µM (THP-1 [11]) [%] | inhibition of growth at 10 µM (Caco-2 [12]) [%] | inhibition of growth at 10 µM (A549 [13]) [%] | inhibition of growth at 100 µM (PC-3 [14]) [%] | inhibition of growth at 10 µM (THP-1 [15]) [%] | inhibition of growth at 50 µM (PC-3 [16]) [%]
O=C1C(=O)N(CCn2cc(CN3C(=O)C(=O)c4cc([N+](=O)[O-])ccc43)nn2)c2ccc(Cl)cc21 | 21 | 33 | Dose-dependent effect | 53.2 | Dose-dependent effect | 39.3 | 30 | 80 | 99 | Dose-dependent effect | 26 | Dose-dependent effect | > 100 | 88 | 82 | 17 | 11 | 72 | 29 | 44
O=C1C(=O)N(CCn2cc(CN3C(=O)C(=O)c4cc([N+](=O)[O-])ccc43)nn2)c2ccccc21 | 4 | 18 | Dose-dependent effect | 30.7 | Dose-dependent effect | 39.2 | 24 | 96 | 98 | Dose-dependent effect | 42.8 | Dose-dependent effect | > 100 | 100 | 97 | 0 | 13 | 99 | 11 | 97
O=C1C(=O)N(CCn2cc(CN3C(=O)C(=O)c4ccccc43)nn2)c2ccc(F)cc21 | 1 | 10 | Dose-dependent effect | 71.1 | Dose-dependent effect | > 100 | 0 | 17 | 32 | Dose-dependent effect | 88.1 | Dose-dependent effect | > 100 | 90 | 15 | 0 | 6 | 82 | 8 | 32
Cc1ccc2c(c1)C(=O)C(=O)N2Cc1cn(CCN2C(=O)C(=O)c3cc(F)ccc32)nn1 | 15 | 44 | Dose-dependent effect | 85.2 | Dose-dependent effect | 49.9 | 0 | 57 | 99 | Dose-dependent effect | 38.8 | Dose-dependent effect | > 100 | 89 | 88 | 0 | 8 | 48 | 14 | 31
O=C1C(=O)N(CCn2cc(CN3C(=O)C(=O)c4cc(Br)ccc43)nn2)c2ccc(F)cc21 | 7 | 13 | Dose-dependent effect | > 100 | Dose-dependent effect | 16.4 | 0 | 79 | 98 | Dose-dependent effect | 27.6 | Dose-dependent effect | > 100 | 94 | 85 | 0 | 41 | 51 | 26 | 2
